Source: patent US20100273833A1, “2-SULFINYL- AND 2-SULFONYL-SUBSTITUTED IMIDAZOLE DERIVATIVES AND THEIR USE AS CYTOKINE INHIBITORS” (priority 2005, published 2010)
In brackets after ≈: the same amount, converted by molar mass. Structures can show the parent of a compound that is named as a salt.

How the values were obtained:
Solubility in water = format: physicochemical
[1] = In vitro metabolism, incubation with rat liver microsomes; format: in vitro ADME; conditions: phosphate buffer pH 7.4, NADPH, 37° C., HPLC peak areas
Description: The test substances were incubated in standard experiments with rat liver microsomes (phosphate buffer with pH 7.4, NADPH, 37° C.). The biotransformations were stopped after 0, 15, 30 and 60 min by adding acetonitrile and were centrifuged, and the protein-free supernatant was analyzed by HPLC. Resulting metabolites were approximately quantified via the peak areas. The result of the biotransformation of Example 12 and of the corresponding sulfanyl compound, which is representative in terms of the sulfinyl/sulfanyl substitution comparison, is described by way of example. The sulfanyl compound was rapidly converted into a number of metabolites and, after 30 min, less than 1% of the pharmacologically active starting substance remained. Under identical experimental conditions, about 70% of the initial amount of Example 12 were still present after 30 min, and more than 50% were still present after 60 min.

Question: Which solubility in water (Solubility in water) does the source give for `CC(=O)Nc1cc(-c2c(-c3ccc(F)cc3)nc([S+](C)[O-])n2C)ccn1` (stereo not drawn) [Example 3 hydrobromide, N-{4-[5-(4-Fluorophenyl)-2-methanesulfinyl-3-methyl-3H-imidazol-4-yl]pyridin-2-yl}acetamide] here?
Answer: 1050 µg/mL

Question: With `CC(=O)Nc1cc(-c2c(-c3ccc(F)cc3)nc([S+](C)[O-])n2C)ccn1` (stereo not drawn) [Example 3 hydrochloride, N-{4-[5-(4-Fluorophenyl)-2-methanesulfinyl-3-methyl-3H-imidazol-4-yl]pyridin-2-yl}acetamide] as the molecule, how does the solubility in water (Solubility in water) read?
Answer: 1120 µg/mL

Question: With `CC(=O)Nc1cc(-c2c(-c3ccc(F)cc3)nc([S+](C)[O-])n2C)ccn1` (stereo not drawn) [Example 3 hydrogensulfate, N-{4-[5-(4-Fluorophenyl)-2-methanesulfinyl-3-methyl-3H-imidazol-4-yl]pyridin-2-yl}acetamide] as the molecule, how does the solubility in water (Solubility in water) read?
Answer: 390 µg/mL (≈ 1050 µM)

Question: With `CC(=O)Nc1cc(-c2c(-c3ccc(F)cc3)nc([S+](C)[O-])n2C)ccn1` (stereo not drawn) [Example 3 methane sulfonate, N-{4-[5-(4-Fluorophenyl)-2-methanesulfinyl-3-methyl-3H-imidazol-4-yl]pyridin-2-yl}acetamide] as the molecule, how does the solubility in water (Solubility in water) read?
Answer: 890 µg/mL

Question: Which solubility in water (Solubility in water) does the source give for `CC(=O)Nc1cc(-c2c(-c3ccc(F)cc3)nc([S+](C)[O-])n2C)ccn1` (stereo not drawn) [Example 3 sulfate, N-{4-[5-(4-Fluorophenyl)-2-methanesulfinyl-3-methyl-3H-imidazol-4-yl]pyridin-2-yl}acetamide] here?
Answer: 310 µg/mL

Question: Which solubility in water (Solubility in water) does the source give for `CC(=O)Nc1cc(-c2c(-c3ccc(F)cc3)nc([S+](C)[O-])n2C)ccn1` (stereo not drawn) [Example 3, N-{4-[5-(4-Fluorophenyl)-2-methanesulfinyl-3-methyl-3H-imidazol-4-yl]pyridin-2-yl}acetamide] here?
Answer: 70 µg/mL (≈ 188 µM)

Question: Which “initial amount of starting substance still present after 30 min” value ([1]; 30 min) does the source give for `COCCn1c([S+](C)[O-])nc(-c2ccc(F)cc2)c1-c1ccnc(NC(C)C)c1` (stereo not drawn) [Example 12, {4-[5-(4-Fluorophenyl)-2-methanesulfinyl-3-(2-methoxyethyl)-3H-imidazol-4-yl]pyridin-2-yl}isopropylamine] here?
Answer: about 70%

Question: And the “initial amount still present after 60 min” value ([1]; 60 min)?
Answer: more than 50%

Question: Which melting point does the source give for `Fc1ccc(-c2nc3n(c2-c2ccnc(Nc4ccccc4)c2)CCS3)cc1` [Example 34, {4-[6-(4-Fluorophenyl)-2,3-dihydro-imidazo[2,1-b]thiazol-5-yl]-pyridin-2-yl}-phenyl-amine] here?
Answer: 298.7 °C
